In patent publication US8710104B2, “Catecholic butanes and use thereof for cancer therapy” (Triact Therapeutics, Inc., priority 2008, dated 2014):

Assays:
H1299 NSCLC cells [1] = assay: proliferation of H1299 NSCLC cells; type: cell-based
[2] = target: T1, kinase domain of the IGF-1R (Homo sapiens, UniProt P08069); assay: RTK activity ELISA, IGF-1R kinase domain; type: biochemical; conditions: ATP 10 μM, IRS-1 substrate peptide 0.2 μM, 45 minute reaction
T1 construct: recombinant proteins representing the kinase domain of the IGF-1R or EGFR (Cell Signaling Technology, Danvers, Mass.); purchased Cell Signaling Technology, Danvers, Mass
Procedure: (§1) Inhibition of lipoxygenase activity was determined by use of a lipoxygenase inhibitor screening assay kit (Cayman Chemicals, Ann Arbor, Mich.). […] LOX activity was determined by the amount of hydroperoxides produced, as quantified by colorimetric readout. Inhibition of RTK activity was determined by ELISA as follows. […] The reaction was stopped with 50 mM EDTA, and biotin-conjugated substrate was captured on a 96-well streptavidin-coated plate. Tyrosine phosphorylation of captured substrate was determined by incubation with anti-phosphotyrosine antibody conjugated to HRP (Santa Cruz Biotechnology, Santa Cruz, Calif.) and colorimetric readout on a 96 well plate reader.

H1299 NSCLC cells [3] = assay: soft agar colony formation, H1299; type: cell-based; conditions: 5 μM or 30 μM TT-100, 8 days; reduced more at higher dose
Procedure: (§2) Colony formation was assessed and compared with the control cells grown in the absence of TT-100.

[4] = system: subcutaneous HER2 breast tumors (MCNeuA cells); assay: MCNeuA syngeneic breast cancer model, tumor growth; type: in vivo, MMTVneu transgenic mice; conditions: thrice weekly
Procedure: (§3) MCNeuA cells were implanted in MMTVneu transgenic mice to induce tumor growth. […] Tumor growth was monitored and tumor size was measured at various time points. […] IGF-1R and HER2 phosphorylation were measured by ELISA.

[5] = system: H1975 NSCLC cells expressing EGFR T790M mutation; assay: proliferation of Iressa-resistant H1975 NSCLC cells; type: cell-based; conditions: 10 μM TT-100, 3 days
[6] = target: T2, kinase domain of the EGFR (Homo sapiens, UniProt P00533); assay: RTK activity ELISA, EGFR kinase domain; type: biochemical; conditions: ATP 10 μM, PTP1B substrate peptide 0.2 μM, 45 minute reaction
T2 construct: recombinant proteins representing the kinase domain of the IGF-1R or EGFR (Cell Signaling Technology, Danvers, Mass.); purchased Cell Signaling Technology, Danvers, Mass
Procedure: as §1

IGF-1R = target: T3, IGF-1R (Mus musculus, UniProt Q60751); assay: IGF-1R phosphorylation in excised breast tumors by ELISA; type: in vivo, MMTVneu transgenic mice; conditions: tumor excised on day 28, 24 hrs after the final treatment
T3 construct: from tissue; host or cells: excised subcutaneous MCNeuA breast tumours from MMTVneu transgenic mice
Procedure: as §3

H1975 NSCLC cells = assay: soft agar colony formation, H1975; type: cell-based; conditions: 5 μM or 30 μM TT-100, 8 days; reduced more at higher dose
Procedure: as §2

HER2 = HER2 phosphorylation in excised breast tumors by ELISA; type: in vivo, MMTVneu transgenic mice; conditions: tumor excised on day 28, 24 hrs after the final treatment
Procedure: as §3

ovarian cancer = ovarian cancer patients; topotecan about 1.5 mg/m^2 i.v. days 1-5 of a 21-day course
Excerpt: This example describes a randomized, blinded, placebo-controlled, multicenter, Phase II study designed to provide a preliminary assessment of the safety and efficacy of combining NDGA with topotecan in patients with ovarian cancer. Approximately about 100—about 800 patients are enrolled, with about 50—about 400 patients being assigned to a treatment group and about 50—about 400 patients assigned to a placebo group. The trial will consist of the administration of intravenous repeating doses of NDGA as described above in Example 11 combined with topotecan at about 1.5 mg/m^2 by intravenous infusion on days 1-5 of a 21-day course, with courses repeating throughout the study. Control patients are administered topotecan with placebo. […] Additional outcome measures are as follows:
Primary outcome measure: progression-free survival.

T1 sequence (P08069 999-1274 limits assumed): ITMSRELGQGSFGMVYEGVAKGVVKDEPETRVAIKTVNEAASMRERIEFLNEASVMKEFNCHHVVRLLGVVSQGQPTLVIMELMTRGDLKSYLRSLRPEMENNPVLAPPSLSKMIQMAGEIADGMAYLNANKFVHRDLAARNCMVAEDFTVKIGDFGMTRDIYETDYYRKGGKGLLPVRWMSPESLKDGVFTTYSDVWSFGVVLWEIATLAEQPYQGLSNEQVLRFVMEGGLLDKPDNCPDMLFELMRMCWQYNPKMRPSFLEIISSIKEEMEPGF
T2 sequence (P00533 712-979 limits assumed): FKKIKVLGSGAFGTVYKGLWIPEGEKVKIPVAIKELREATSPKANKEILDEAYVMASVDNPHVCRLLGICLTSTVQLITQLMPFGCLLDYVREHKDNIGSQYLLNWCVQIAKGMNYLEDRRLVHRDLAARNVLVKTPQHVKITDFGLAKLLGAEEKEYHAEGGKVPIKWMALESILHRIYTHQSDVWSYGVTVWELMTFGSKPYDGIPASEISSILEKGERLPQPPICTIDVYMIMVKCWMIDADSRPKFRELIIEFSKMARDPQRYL
T3 sequence (Q60751 31-1373): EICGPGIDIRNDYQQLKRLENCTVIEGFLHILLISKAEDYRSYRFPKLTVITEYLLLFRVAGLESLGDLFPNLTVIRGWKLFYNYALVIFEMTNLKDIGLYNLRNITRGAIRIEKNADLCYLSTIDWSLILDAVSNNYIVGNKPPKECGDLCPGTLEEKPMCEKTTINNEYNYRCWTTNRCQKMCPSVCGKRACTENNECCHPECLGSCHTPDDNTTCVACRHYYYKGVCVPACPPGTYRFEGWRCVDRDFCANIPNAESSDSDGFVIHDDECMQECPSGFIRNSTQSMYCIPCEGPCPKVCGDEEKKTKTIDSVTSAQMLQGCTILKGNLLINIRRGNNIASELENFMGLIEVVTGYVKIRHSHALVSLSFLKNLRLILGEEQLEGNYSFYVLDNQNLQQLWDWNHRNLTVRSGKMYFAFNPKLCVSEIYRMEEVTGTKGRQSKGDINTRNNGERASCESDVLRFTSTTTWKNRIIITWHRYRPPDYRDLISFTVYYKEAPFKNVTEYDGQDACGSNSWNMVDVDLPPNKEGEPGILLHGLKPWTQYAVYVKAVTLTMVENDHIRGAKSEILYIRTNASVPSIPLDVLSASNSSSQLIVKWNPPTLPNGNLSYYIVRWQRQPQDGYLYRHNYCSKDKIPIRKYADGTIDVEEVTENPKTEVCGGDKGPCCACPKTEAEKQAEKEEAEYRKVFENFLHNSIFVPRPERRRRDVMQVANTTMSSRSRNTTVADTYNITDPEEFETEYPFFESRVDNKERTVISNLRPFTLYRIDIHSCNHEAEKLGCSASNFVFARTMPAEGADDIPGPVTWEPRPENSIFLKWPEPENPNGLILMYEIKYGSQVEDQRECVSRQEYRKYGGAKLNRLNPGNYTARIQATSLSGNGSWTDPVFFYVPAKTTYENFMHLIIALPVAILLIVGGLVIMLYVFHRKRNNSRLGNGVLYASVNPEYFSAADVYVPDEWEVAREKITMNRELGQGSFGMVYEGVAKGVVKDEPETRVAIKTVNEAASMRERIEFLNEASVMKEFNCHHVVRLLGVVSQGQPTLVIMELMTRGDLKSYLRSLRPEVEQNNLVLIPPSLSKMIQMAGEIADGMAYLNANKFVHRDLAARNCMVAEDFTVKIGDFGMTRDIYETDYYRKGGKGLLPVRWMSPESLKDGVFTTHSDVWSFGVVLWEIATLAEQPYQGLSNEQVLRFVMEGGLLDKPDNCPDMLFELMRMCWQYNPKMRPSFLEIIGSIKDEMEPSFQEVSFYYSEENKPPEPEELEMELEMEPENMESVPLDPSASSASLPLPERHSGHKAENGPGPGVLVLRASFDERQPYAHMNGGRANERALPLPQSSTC

## COc1cc2ncnc(Nc3ccc(F)c(Cl)c3)c2cc1OCCCN1CCOCC1 [Iressa, Gefitinib, reference compound]
H1299 NSCLC cells [1]; 1 μM Iressa, 3 days
  proliferation (percent growth of the control cells), Iressa alone: resistant

## CC(Cc1ccc(O)c(O)c1)C(C)Cc1ccc(O)c(O)c1 (stereo not drawn) [TT-100, nordihydroguaiaretic acid]
H1299 NSCLC cells [1]; 10 μM or 20 μM TT-100, 3 days, especially at 20 μM
  proliferation (percent growth of the control cells), TT-100 alone: inhibited the proliferation
[2]
  inhibition of tyrosine kinase activity of purified IGF-1R: directly inhibits
H1299 NSCLC cells [3]
  colony formation in soft agar: inhibited colony formation
[4]; 37.5 mg/kg i.p.
  tumor growth (tumor size): inhibited the growth
[4]; 100 mg/kg by gavage (oral)
  tumor growth (tumor size): inhibited the growth
[5]
  reduction of proliferation (percent growth of the control cells): approximately 50%
[6]
  inhibition of tyrosine kinase activity of purified EGFR: directly inhibits
IGF-1R
  IGF-1R receptor phosphorylation compared to vehicle-treated control: significantly inhibited
H1975 NSCLC cells
  colony formation in soft agar: inhibited colony formation
HER2
  HER2 receptor phosphorylation compared to vehicle-treated control: significantly inhibited

## CC[C@@]1(O)C(=O)OCc2c1cc1n(c2=O)Cc2cc3c(CN(C)C)c(O)ccc3nc2-1 [topotecan]
Ovarian cancer
  progression free survival (goal of the study): 3-6 months
